The target in assay [1] is Ribosomal protein S6 kinase alpha-5 (Homo sapiens) (UniProt O75582). As to the kind of experiment: Selectivity interaction (Upstate Kinase Profiler service (Millipore)) EUB0000056c RPS6KA5. Conditions: at 1 µM.
In assay [2] the target is T1, Tyrosine-protein kinase ITK/TSK (Homo sapiens) (UniProt Q08881).
T1 sequence (whole entry): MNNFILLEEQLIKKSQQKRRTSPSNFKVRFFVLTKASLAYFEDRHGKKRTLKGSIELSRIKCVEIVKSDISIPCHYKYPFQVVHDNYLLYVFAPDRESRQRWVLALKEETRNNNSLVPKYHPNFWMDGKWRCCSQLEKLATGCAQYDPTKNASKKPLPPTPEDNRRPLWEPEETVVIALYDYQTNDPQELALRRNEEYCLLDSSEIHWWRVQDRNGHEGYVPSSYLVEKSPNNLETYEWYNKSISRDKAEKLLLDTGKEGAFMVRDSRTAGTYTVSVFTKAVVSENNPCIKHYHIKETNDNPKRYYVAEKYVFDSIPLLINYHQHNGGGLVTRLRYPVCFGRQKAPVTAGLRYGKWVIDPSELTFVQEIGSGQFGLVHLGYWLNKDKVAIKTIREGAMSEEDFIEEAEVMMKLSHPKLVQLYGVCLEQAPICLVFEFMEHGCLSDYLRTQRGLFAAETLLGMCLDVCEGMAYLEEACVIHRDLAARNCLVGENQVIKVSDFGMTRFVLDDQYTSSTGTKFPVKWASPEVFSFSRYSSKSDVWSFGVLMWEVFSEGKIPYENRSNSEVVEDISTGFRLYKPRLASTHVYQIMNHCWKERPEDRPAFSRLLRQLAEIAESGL
The following applies: at 10 µM.

The target of assay [3] is T2, Mitogen-activated protein kinase kinase kinase 6 (Homo sapiens) (UniProt O95382).
T2 sequence (whole entry): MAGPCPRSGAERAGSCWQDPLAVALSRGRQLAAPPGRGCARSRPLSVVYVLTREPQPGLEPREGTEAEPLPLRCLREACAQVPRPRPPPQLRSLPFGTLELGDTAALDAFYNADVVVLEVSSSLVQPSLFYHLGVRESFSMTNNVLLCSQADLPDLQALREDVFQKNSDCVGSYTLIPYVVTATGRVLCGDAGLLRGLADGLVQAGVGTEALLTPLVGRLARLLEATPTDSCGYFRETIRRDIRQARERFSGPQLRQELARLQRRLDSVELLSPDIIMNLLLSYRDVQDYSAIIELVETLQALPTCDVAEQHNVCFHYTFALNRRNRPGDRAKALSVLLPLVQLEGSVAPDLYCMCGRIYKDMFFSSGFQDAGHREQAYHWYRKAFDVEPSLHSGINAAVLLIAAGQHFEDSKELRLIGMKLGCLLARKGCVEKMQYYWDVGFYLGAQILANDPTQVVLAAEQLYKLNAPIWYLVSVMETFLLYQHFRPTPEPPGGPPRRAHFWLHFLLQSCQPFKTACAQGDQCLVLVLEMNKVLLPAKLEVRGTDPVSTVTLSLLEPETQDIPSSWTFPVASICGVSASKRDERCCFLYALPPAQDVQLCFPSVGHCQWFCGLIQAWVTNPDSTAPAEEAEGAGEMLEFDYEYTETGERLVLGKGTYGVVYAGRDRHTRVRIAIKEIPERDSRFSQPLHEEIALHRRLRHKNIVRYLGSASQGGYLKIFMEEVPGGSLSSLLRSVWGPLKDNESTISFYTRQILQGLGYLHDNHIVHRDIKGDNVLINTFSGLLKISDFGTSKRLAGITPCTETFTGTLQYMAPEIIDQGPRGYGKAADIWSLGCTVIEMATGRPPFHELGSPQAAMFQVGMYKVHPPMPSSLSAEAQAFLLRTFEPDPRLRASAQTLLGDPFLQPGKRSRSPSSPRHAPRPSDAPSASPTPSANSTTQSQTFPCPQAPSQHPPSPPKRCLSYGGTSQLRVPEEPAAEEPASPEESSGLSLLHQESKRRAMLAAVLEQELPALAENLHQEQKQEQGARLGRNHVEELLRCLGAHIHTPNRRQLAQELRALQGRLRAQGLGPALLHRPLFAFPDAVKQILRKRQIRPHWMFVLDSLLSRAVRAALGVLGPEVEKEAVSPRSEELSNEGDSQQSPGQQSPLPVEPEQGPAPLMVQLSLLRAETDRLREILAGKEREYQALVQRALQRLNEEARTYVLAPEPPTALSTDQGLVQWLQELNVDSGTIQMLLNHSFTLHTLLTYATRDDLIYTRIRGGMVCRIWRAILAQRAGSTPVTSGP
As to the kind of experiment: Selectivity interaction (KinomeScan (DiscoverX)) EUB0001049a MAP3K6. Conditions: at 1 µM.

Assay [4] has as its target Protein kinase C delta type (Homo sapiens) (UniProt Q05655). As to the kind of experiment: Selectivity interaction (KinomeScan (DiscoverX)) EUB0000045b PRKCD.
The target in assay [5] is T3, Serine/threonine-protein kinase D2 (Homo sapiens) (UniProt Q9BZL6).
T3 sequence (whole entry): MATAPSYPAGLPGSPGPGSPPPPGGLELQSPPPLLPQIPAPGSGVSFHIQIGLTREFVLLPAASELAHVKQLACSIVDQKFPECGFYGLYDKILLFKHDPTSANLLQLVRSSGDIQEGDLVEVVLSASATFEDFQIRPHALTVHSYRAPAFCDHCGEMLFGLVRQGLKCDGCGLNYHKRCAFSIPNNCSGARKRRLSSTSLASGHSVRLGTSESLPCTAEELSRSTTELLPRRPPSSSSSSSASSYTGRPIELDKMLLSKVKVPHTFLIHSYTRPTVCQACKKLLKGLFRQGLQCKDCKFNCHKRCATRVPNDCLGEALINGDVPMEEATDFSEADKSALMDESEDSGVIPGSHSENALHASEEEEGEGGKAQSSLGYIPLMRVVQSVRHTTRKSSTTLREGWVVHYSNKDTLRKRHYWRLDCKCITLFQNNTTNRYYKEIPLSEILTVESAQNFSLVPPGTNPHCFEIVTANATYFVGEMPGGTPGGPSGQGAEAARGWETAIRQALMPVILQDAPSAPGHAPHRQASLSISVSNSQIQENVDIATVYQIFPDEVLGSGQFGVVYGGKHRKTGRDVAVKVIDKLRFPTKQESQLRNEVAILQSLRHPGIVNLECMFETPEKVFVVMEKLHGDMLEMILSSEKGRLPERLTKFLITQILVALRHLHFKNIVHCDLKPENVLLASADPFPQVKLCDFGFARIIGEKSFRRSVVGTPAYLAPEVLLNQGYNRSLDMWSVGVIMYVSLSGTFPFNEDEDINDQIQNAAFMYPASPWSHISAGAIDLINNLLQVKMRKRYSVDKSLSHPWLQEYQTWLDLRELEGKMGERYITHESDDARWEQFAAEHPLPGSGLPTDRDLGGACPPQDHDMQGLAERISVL
As to the kind of experiment: Selectivity interaction (KinomeScan (DiscoverX)) EUB0000045b PRKD2.

Structures are written as SMILES.

Sequence of Protein kinase C delta type (Homo sapiens) (Q05655 whole entry, looked up): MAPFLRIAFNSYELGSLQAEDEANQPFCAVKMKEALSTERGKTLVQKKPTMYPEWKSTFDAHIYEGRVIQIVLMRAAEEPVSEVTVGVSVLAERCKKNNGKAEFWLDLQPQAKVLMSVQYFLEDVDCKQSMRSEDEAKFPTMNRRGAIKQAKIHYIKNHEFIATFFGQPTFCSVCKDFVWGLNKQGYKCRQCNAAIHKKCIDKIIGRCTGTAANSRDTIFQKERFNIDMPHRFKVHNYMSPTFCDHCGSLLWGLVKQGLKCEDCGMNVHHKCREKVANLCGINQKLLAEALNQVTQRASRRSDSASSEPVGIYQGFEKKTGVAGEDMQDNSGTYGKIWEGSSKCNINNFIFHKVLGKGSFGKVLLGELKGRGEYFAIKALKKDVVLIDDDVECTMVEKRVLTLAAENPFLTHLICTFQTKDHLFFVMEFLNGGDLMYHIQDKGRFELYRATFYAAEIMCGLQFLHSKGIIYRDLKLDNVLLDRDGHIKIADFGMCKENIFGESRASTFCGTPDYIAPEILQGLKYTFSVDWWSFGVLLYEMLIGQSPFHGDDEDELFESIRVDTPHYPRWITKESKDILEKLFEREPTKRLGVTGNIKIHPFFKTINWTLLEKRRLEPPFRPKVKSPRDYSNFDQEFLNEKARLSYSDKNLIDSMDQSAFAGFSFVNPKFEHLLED
Sequence of Ribosomal protein S6 kinase alpha-5 (Homo sapiens) (O75582 whole entry, looked up): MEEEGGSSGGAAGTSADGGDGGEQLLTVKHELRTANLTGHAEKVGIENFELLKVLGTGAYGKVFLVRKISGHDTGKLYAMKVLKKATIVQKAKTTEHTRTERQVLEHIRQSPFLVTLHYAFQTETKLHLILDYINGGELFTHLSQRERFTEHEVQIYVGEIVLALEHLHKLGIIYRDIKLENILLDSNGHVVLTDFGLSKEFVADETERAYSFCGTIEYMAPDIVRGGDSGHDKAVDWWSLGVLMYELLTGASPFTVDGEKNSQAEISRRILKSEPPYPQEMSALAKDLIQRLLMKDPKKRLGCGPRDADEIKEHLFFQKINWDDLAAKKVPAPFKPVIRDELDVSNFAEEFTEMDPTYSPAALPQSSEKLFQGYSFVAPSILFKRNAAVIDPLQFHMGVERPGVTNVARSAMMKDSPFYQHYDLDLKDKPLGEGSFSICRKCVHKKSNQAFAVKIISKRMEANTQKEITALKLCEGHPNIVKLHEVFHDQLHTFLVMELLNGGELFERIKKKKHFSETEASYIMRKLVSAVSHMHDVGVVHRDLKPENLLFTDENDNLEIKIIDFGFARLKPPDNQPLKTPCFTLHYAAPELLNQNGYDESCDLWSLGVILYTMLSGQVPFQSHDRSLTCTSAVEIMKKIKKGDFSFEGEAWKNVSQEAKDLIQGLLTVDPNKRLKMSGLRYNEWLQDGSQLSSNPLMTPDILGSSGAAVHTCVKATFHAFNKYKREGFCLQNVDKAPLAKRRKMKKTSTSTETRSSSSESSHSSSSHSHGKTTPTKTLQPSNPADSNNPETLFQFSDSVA

In the case of `Cc1ccc(-c2ccc3c(ccc4sc5c(c43)NC[C@@H](C)NC5=O)n2)cn1`, the % of inhibition in assay [1] is -9%.
For `CCN(CC)CCCCNc1ncc2cc(-c3cc(OC)cc(OC)c3)c(NC(=O)NC(C)(C)C)nc2n1`, in assay [2], the % of control was 100%.
With `COc1cc(Nc2nc(C)cc(-c3cnn4nc(OC)ccc34)n2)cc(C(F)(F)F)c1`, in assay [3], the % of control is 66%.
With `C=CC(=O)Nc1cc(-n2c(=O)ccc3cnc4ccc(-c5ccc(NS(C)(=O)=O)cc5)cc4c32)ccc1C`, the % of control came to 41% in assay [4] (at 1 µM), 91% in assay [4] (at 10 µM), 87% in assay [5] (at 1 µM) and 82% in assay [5] (at 10 µM).

The values are drawn from ChEMBL document CHEMBL5465560, “Selectivity Literature for EUbOPEN Chemogenomic Library” (2024).
